The values below are quoted from earlier work in publication PMC2913283 (Bioconjugate chemistry, 2010).

The conditions of this data set: initial studies.

Regarding “Diethylenetriaminepenatacetic acid-(DTPA-Al^18F) complexes”, the stability in vitro entry was “not stable in vitro”.
